pIC50: −log10 of the molar value.
Experiments:
[1] = molecular target: PAS domain-containing serine/threonine-protein kinase (Homo sapiens, UniProt Q96RG2); test: Inhibition of human recombinant PASK using Ulight-peptide substrate incubated for 2 hrs by TR-FRET assay
[2] = Half life in Sprague-Dawley rat at 1 mg/kg, iv after 0.083 to 24 hrs by LC-MS/MS method; type: ADME, organism-based; details: in vivo

Chain of PAS domain-containing serine/threonine-protein kinase (Q96RG2 whole entry, the tested form may be a part): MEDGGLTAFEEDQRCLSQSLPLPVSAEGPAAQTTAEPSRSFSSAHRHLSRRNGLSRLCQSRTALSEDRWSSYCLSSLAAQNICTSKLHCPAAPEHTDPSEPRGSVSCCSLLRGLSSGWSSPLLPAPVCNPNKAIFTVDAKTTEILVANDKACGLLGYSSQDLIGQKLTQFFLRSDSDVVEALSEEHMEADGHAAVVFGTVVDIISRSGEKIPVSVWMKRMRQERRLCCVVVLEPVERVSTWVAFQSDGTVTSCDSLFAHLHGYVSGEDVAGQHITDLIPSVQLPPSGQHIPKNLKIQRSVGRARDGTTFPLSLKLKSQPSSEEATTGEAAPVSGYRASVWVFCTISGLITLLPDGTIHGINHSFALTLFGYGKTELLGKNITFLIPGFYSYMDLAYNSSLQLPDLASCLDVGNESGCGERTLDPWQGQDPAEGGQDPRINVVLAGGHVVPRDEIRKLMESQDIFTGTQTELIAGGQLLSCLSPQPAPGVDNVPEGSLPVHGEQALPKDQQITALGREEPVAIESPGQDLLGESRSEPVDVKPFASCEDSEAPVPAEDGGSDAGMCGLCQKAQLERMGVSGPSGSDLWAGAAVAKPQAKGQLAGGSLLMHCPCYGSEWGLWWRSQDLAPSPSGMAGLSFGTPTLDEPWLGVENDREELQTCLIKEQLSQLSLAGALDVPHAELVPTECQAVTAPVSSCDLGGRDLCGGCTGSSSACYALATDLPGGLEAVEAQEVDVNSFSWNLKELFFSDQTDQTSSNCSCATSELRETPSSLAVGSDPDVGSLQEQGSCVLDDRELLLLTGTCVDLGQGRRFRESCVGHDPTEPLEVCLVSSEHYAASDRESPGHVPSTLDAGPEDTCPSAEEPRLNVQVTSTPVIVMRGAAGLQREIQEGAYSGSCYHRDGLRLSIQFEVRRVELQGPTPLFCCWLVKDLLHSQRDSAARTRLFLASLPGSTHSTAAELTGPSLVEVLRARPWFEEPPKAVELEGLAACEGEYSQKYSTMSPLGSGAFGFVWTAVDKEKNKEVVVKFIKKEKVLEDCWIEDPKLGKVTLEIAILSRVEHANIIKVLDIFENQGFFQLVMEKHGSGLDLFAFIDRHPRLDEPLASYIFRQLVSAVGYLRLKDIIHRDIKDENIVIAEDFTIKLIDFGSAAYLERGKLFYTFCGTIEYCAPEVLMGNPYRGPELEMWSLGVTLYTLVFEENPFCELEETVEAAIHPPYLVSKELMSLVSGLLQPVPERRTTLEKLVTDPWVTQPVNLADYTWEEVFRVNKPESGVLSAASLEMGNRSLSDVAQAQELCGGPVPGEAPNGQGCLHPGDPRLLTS

| SMILES | pIC50 [1] | half-life [2] |
| --- | --- | --- |
| CC(C)N(C)c1nc2cc(C(=O)O)ccc2nc1-c1nc2ccccc2o1 | ≥ 5.00 |  |
| COc1ccc(-c2nc3ccc(C(=O)O)cc3nc2N(C)C(C)C)cn1 | ≥ 5.00 |  |
| C[C@H]1COCCN1c1nc2cc(C(=O)O)ccc2nc1-c1ccc(F)cc1 |  | 7.72 h |
